{"source": "patent US20080167268A1", "about": "“Particulate beta-glucan compositions for regulating dendritic cells” (priority 2006, published 2008)", "tested_on": "Lewis Lung Carcinoma cells (LLC) transfected with OVA and MUC1", "test": "Staurosporine-induced apoptosis of transfected LLCs (PI / annexin V-FITC flow cytometry)", "format": "cell-based", "settings": "transfected LLCs treated with Staurosporine vs untreated; FIG. 2", "description": "Transfected LLCs were either left untreated (plot 22) or treated (plot 24) with Staurosporine, which induces apoptosis. Cells from both groups were stained with propidium iodide (PI) and annexin V-FITC and analyzed by flow cytometry."}
{"smiles": "CN[C@@H]1C[C@H]2O[C@@](C)([C@@H]1OC)n1c3ccccc3c3c4c(c5c6ccccc6n2c5c31)C(=O)NC4", "note": "[Staurosporine]", "values": [{"measurement": "induction of apoptosis (annexin V-FITC positive cells)", "result": "able to induce apoptosis"}]}
